Results: US11963946B2, “MDMA treatment to enhance acute emotional effects profile of LSD, psilocybin, or other psychedelics” (Universitätsspital Basel, priority 2020, dated 2024)
Several values for one entry are separate records, joined by “and”; a condition that tells them apart may be missing. Equal values may be shown once. Read-outs that look alike come from different tables or passages of the source.

How the values were obtained:
[1] = test system: serotonin 5-HT1 receptors; conditions: Rickli et al., 2016; cited from earlier work
D2 receptors = D2 receptors (Homo sapiens, UniProt P14416); conditions: cited from earlier work
Chain of D2 receptors (P14416 whole entry): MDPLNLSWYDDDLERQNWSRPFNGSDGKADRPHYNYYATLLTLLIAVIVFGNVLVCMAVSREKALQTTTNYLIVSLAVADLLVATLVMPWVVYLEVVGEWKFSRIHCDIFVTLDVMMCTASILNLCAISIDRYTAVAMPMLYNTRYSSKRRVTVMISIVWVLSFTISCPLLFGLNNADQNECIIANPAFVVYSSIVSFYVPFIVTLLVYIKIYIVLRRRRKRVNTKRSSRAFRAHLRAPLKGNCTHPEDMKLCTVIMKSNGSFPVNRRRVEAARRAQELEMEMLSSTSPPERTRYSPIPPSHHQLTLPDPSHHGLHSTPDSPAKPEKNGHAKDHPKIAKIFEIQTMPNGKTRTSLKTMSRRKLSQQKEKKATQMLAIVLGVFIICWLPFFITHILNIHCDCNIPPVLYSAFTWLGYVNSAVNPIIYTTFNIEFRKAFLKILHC

healthy human subjects [2] = assay: Subjective effects Visual Analog Scales (VAS), LSD-MDMA clinical study; conditions: for peak subjective effects ratings of any drug effect (VAS): oral, mean of two healthy subjects; for bad drug effects (VAS): FIG. 3A; for ratings of being talkative (VAS): FIG. 8A; for wanting to be alone / with other people (VAS): FIGS. 10A and 10B
healthy human subjects [3] = assay: Adverse effects, list of complaints (LC) score, LSD-MDMA clinical study; conditions: 0.1 mg LSD, 100 mg MDMA or both; mean of two subjects; placebo 5
humans = conditions: cited from earlier work
5-HT2A receptor = 5-HT2A receptor (Homo sapiens, UniProt P28223); conditions: Rickli et al., 2016; cited from earlier work
Chain of 5-HT2A receptor (P28223 whole entry): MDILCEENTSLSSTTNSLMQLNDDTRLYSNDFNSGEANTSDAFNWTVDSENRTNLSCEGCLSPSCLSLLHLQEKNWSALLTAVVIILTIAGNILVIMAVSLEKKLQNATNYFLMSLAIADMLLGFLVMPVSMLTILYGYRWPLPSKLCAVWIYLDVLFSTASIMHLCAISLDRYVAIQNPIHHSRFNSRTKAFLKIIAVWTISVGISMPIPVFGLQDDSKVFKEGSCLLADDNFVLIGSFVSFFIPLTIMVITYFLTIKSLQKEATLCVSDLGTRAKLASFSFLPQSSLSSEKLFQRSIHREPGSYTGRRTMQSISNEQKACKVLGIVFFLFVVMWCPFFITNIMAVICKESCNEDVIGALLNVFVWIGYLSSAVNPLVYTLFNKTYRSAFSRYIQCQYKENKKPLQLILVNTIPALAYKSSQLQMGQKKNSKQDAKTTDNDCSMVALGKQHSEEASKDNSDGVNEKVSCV

healthy human subjects [4] = conditions: two subjects; FIGS. 12, 13
5-HT transporter (SERT) = 5-HT transporter (SERT) (Homo sapiens, UniProt P31645); conditions: Rickli et al., 2016; cited from earlier work
Chain of 5-HT transporter (SERT) (P31645 whole entry, species assumed): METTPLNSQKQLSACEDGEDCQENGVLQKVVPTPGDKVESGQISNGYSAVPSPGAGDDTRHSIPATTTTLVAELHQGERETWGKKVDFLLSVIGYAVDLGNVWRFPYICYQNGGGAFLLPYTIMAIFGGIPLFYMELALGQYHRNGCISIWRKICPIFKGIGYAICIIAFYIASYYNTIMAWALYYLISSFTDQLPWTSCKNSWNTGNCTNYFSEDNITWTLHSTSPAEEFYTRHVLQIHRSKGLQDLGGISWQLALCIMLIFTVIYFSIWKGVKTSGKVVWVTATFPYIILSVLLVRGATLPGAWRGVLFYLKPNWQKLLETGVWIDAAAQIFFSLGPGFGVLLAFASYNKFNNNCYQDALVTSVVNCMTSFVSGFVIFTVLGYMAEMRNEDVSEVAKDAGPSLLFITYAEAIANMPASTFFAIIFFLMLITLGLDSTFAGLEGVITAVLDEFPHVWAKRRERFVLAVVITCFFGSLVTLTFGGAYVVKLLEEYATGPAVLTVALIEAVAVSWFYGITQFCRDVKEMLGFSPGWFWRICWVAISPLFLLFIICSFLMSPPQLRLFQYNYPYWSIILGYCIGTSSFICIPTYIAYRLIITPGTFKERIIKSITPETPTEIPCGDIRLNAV

D1-3 receptors = conditions: Rickli et al., 2016; cited from earlier work
healthy humans = conditions: cited from earlier work
[5] = 0.1 mg LSD, 100 mg MDMA or both, FIG. 2A
[6] = 0.1 mg LSD, 100 mg MDMA or both, two subjects
[7] = oral administration (Vizeli et al., 2017)

COc1cc(CCN)cc(OC)c1OC [mescaline]
agonist potency at serotonin 5-HT1 receptors [1]: low potency
affinity for D2 receptors (D2 receptors): no affinity

CNC(C)Cc1ccc2c(c1)OCO2 (stereo not shown) [MDMA, 3,4-methylenedioxymethamphetamine]
peak subjective effects ratings of any drug effect (VAS) (healthy human subjects [2]; [5]): comparable peak subjective effects ratings
bad drug effects (VAS) (healthy human subjects [2]; [6]): moderately increased subjective bad drug effect ratings
ratings of openness (VAS) (healthy human subjects [2]; two subjects): increases ratings of openness
ratings of being talkative (VAS) (healthy human subjects [2]; two subjects): increases ratings of being talkative
ratings of trust (VAS) (healthy human subjects [2]; two subjects, FIG. 9A): increases feelings of trust
wanting to be alone / with other people (VAS) (healthy human subjects [2]; two subjects): wanted to be with others and not alone
Total average LC scores (healthy human subjects [3]): 12
duration of the subjective effect (humans; MDMA (Vizeli et al., 2017)): 4.2 ± 1.3 h
onset of the MDMA effect (mean±SD) (humans; [7]): 33 ± 24 min and 33 min
time to peak effect after MDMA administration (humans; [7]): 1.6 ± 0.8 h and 1.6 h

CCN(CC)C(=O)[C@@H]1C=C2c3cccc4[nH]cc(c34)C[C@H]2N(C)C1 [LSD, lysergic acid diethylamide]
stimulation of the 5-HT2A receptor (5-HT2A receptor): potently stimulates
agonist potency at serotonin 5-HT1 receptors [1]: potent agonists
alterations of consciousness on the 5D-ASC main and subscales (healthy human subjects [4]): comparable degrees of alterations of consciousness
peak subjective effects ratings of any drug effect (VAS) (healthy human subjects [2]; [5]): comparable peak subjective effects ratings
duration of any drug effect (VAS) (healthy human subjects [2]; 0.1 mg LSD, 100 mg MDMA or both, two subjects, FIG. 2A): lasted longer than those of MDMA
good drug effects duration (VAS) (healthy human subjects [2]; 0.1 mg LSD, 100 mg MDMA or both, two subjects, FIG. 2B): lasted longer
bad drug effects (VAS) (healthy human subjects [2]; [6]): minor subjective bad drug effects
anxiety (VAS) (healthy human subjects [2]; 0.1 mg LSD, 100 mg MDMA or both, two subjects, FIG. 3B): moderate anxiety at drug effect onset
nausea (VAS) (healthy human subjects [2]; 0.1 mg LSD, two subjects, FIG. 4B): moderate nausea at drug effect onset
ratings of openness (VAS) (healthy human subjects [2]; two subjects): lower increases in openness
changes in visual perception (VAS) (healthy human subjects [2]; two subjects, FIG. 5A): comparable changes in visual perception
synaesthesias (sounds influencing visual perception) (VAS) (healthy human subjects [2]; two subjects, FIG. 5B): comparable changes
changes in the perception of time (VAS) (healthy human subjects [2]; two subjects, FIG. 6A): comparable changes in the perception of time
ratings of being talkative (VAS) (healthy human subjects [2]; two subjects): reduces talkative
degree of intro or extroversion (VAS) (healthy human subjects [2]; two subjects, FIG. 11): no effect
wanting to be alone / with other people (VAS) (healthy human subjects [2]; two subjects): wanted to be with others and not alone
interaction with the SERT (5-HT transporter (SERT)): does not interact with the SERT
Total average LC scores (healthy human subjects [3]): 18
stimulation of D1-3 receptors (D1-3 receptors): stimulates D1-3 receptors
time of onset of the subjective response, any drug effect VAS (mean±SD) (healthy humans; 0.1 mg LSD (Holze et al., 2019a), range 0.3-1.0): 0.7 ± 0.2 h
duration of subjective effects (mean±SD) (healthy humans; 0.1 mg LSD (Holze et al., 2019a), range 5.3-12.8): 8.5 ± 2.0 h
time of offset of the subjective response, any drug effect VAS (mean±SD) (healthy humans; 0.1 mg LSD (Holze et al., 2019a), range 6.0-13.2): 9.1 ± 2.0 h
subjects with bad drug effects (50% or more on a 0-100% scale at any time point) (healthy humans; 0.1 mg LSD, 3 of 24 subjects (Dolder et al., 2017)): 12.5%
subjects with transient bad drug effects (healthy humans; 0.1 mg LSD, 7 of 24 subjects (Holze et al., 2019a)): 29%
duration of LSD effects (healthy humans; 0.1 mg dose (Dolder et al., 2017), range 5-14): 8.2 ± 2.1 h
subjects with bad drug effects (50% or more on a 0-100% scale at any time point) (healthy humans; 0.2 mg LSD, 9 of 16 subjects (Dolder et al., 2017)): 56%
subjects with marked anxiety (healthy humans; 0.2 mg LSD, sixteen healthy humans (Schmid et al., 2015)): two
duration of LSD effects (healthy humans; 0.2 mg dose (Dolder et al., 2017), range 7-19.5): 11.6 ± 1.7 h
subjective response to LSD compared to MDMA (healthy humans; LSD 0.1 mg vs MDMA 125 mg (Holze et al., 2019b)): clearly more pronounced
time to the subjective peak effect (healthy humans; LSD (Holze et al., 2019a), range 1.6-4.3): 2.5 ± 0.6 h and 2.5 h
start of LSD effect, on average (healthy humans; oral administration): 42 min
time after administration at which anxiety mostly occurs (peak effects) (healthy humans; oral dosing formulation of LSD): 1 to 4 h

CN(C)CCc1c[nH]c2cccc(O)c12 [psilocin]
agonist potency at serotonin 5-HT1 receptors [1]: potent agonists
interaction with the SERT (5-HT transporter (SERT)): inhibits the 5-HT transporter
